Experimental data published in US20230233569A1 (Revolution Medicines, Inc., priority 2020, published 2023).
Where two headings read alike, the source gives them in different places.

What was measured:
[1] = test system: NCI-H358 (K-Ras G12C); assay: CellTiter-Glo cell viability assay, 5-day treatment; type: cell-based; conditions: Homo sapiens, NCI-H358, 120 h, 5-day treatment; read-out: H358 Cell Viability assay data (K-Ras G12C, IC50)
How it was run: (§1)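 Seeded cells received test compound by direct dispensing. On day 5 the plates sat at room temperature approximately 30 minutes, then luminescence was measured. Data were normalized to DMSO and curve-fitted with four parameters.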

[2] = test system: Capan-1 (K-Ras G12V); assay: as above; type: cell-based; conditions: Homo sapiens, CAPAN-1, 120 h, 5-day treatment; read-out: Capan-1 Cell Viability assay data (K-Ras G12V, IC50)
How it was run: as §1

[3] = biological target: KRAS G12S (Homo sapiens, UniProt P01116+P62937, G12S); assay: Disruption of BRAF RBD interaction with Ras (FRET / MOA assay, with Cyclophilin A); type: biochemical
Chain of KRAS G12S (P01116 1-169 isoform P01116-2 G12S limits assumed): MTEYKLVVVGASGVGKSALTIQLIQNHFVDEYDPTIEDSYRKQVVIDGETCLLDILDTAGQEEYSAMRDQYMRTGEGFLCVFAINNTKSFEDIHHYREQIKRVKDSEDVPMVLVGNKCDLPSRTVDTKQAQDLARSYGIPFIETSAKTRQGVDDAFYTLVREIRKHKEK
Chain of KRAS G12S (P62937 whole entry): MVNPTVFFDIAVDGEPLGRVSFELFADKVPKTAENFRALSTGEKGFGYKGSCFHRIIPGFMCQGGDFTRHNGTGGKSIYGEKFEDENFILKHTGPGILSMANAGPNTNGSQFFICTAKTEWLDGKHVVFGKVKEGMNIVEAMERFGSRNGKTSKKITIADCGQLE
How it was run: (§2)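 IC50 values reflect loss of K-Ras binding to BRAF RBD, read as a lowered TR-FRET ratio compared with DMSO, driven by compound-mediated K-Ras:Cyclophilin A complex formation. Compound top dose 30 μM final, 3-fold steps, 3 h incubation at 25 °C before a 1.5 h antibody step.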

[4] = biological target: KRAS G12C (Homo sapiens, UniProt P01116+P62937, G12C); assay: as above; type: biochemical
Chain of KRAS G12C (P01116 1-169 isoform P01116-2 G12C): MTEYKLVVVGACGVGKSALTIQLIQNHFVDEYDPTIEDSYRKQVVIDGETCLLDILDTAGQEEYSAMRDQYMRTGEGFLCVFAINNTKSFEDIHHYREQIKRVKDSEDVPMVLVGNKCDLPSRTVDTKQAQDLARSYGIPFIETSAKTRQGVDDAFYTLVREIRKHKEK
Chain of KRAS G12C (P62937 whole entry): as the sequence (P62937 whole entry) above
How it was run: as §2

[5] = biological target: NRAS G12C (Homo sapiens, UniProt P01111+P62937, G12C); assay: as above; type: biochemical
Chain of NRAS G12C (P01111 whole entry G12C): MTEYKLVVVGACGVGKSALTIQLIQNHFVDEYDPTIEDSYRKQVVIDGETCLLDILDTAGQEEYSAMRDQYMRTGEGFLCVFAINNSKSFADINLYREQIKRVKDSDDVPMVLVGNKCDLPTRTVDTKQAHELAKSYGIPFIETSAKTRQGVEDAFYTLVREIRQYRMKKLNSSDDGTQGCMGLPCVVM
Chain of NRAS G12C (P62937 whole entry): as the sequence (P62937 whole entry) above

[6] = biological target: KRAS G13D (Homo sapiens, UniProt P01116+P62937, G13D); assay: as above; type: biochemical
Chain of KRAS G13D (P01116 1-169 isoform P01116-2 G13D limits assumed): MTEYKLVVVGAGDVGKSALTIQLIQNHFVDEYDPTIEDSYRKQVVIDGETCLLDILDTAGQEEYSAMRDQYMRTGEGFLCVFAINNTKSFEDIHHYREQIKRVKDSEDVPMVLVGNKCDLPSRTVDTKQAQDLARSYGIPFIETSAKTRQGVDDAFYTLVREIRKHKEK
Chain of KRAS G13D (P62937 whole entry): as the sequence (P62937 whole entry) above
How it was run: as §2

[7] = biological target: KRAS G12D (Homo sapiens, UniProt P01116+P62937, G12D); assay: as above; type: biochemical
Chain of KRAS G12D (P01116 1-169 isoform P01116-2 G12D limits assumed): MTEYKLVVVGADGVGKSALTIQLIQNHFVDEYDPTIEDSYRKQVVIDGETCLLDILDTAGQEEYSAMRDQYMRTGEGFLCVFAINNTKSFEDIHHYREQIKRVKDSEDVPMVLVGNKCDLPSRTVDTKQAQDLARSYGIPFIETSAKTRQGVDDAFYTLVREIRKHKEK
Chain of KRAS G12D (P62937 whole entry): as the sequence (P62937 whole entry) above
How it was run: as §2

[8] = biological target: KRAS WT (Homo sapiens, UniProt P01116+P62937); assay: as above; type: biochemical
Chain of KRAS WT (P01116 1-169 isoform P01116-2 limits assumed): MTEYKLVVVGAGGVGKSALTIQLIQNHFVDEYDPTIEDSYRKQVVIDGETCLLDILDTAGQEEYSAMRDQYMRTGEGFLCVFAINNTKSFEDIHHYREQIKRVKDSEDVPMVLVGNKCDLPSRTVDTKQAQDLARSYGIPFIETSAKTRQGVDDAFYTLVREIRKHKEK
Chain of KRAS WT (P62937 whole entry): as the sequence (P62937 whole entry) above
How it was run: as §2

[9] = biological target: KRAS G13C (Homo sapiens, UniProt P01116+P62937, G13C); assay: as above; type: biochemical
Chain of KRAS G13C (P01116 1-169 isoform P01116-2 G13C): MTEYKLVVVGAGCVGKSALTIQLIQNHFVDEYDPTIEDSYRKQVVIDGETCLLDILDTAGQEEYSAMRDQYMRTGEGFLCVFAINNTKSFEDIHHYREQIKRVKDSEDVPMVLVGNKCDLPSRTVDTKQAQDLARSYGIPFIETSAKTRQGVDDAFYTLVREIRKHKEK
Chain of KRAS G13C (P62937 whole entry): as the sequence (P62937 whole entry) above
How it was run: as §2

[10] = biological target: KRAS G12V (Homo sapiens, UniProt P01116+P62937, G12V); assay: as above; type: biochemical
Chain of KRAS G12V (P01116 1-169 isoform P01116-2 G12V limits assumed): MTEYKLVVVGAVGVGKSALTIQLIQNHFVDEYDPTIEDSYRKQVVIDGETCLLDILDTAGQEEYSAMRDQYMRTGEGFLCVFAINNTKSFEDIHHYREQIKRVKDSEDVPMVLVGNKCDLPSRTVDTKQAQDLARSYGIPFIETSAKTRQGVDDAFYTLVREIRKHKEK
Chain of KRAS G12V (P62937 whole entry): as the sequence (P62937 whole entry) above
How it was run: as §2

[11] = biological target: NRAS Q61K (Homo sapiens, UniProt P01111+P62937, Q61K); assay: as above; type: biochemical; conditions: NRAS Q61K; read-out: NRAS Q61K FRET data IC50
Chain of NRAS Q61K (P01111 whole entry Q61K): as the sequence (P01111 whole entry G12C) above, with C12G, Q61K counted along it
Chain of NRAS Q61K (P62937 whole entry): as the sequence (P62937 whole entry) above
How it was run: (§3)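 TR-FRET in 25 mM HEPES pH 7.3, 100 mM NaCl, 5 mM MgCl2, 0.1% BSA: 25 μM Cyclophilin A, 12.5 nM His6-Ras-GMPPNP, 50 nM GST-BRAF RBD with compound (10-point 3-fold series from 30 μM), 3 h at 25° C. Anti-His Eu/anti-GST APC added, 1.5 h more; IC50 from decreased FRET ratio versus DMSO.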

[12] = biological target: NRAS Q61R (Homo sapiens, UniProt P01111+P62937, Q61R); assay: as above; type: biochemical; conditions: NRAS Q61R; read-out: NRAS Q61R FRET data IC50
Chain of NRAS Q61R (P01111 whole entry Q61R): as the sequence (P01111 whole entry G12C) above, with C12G, Q61R counted along it
Chain of NRAS Q61R (P62937 whole entry): as the sequence (P62937 whole entry) above
How it was run: as §3

[13] = biological target: KRAS Q61H (Homo sapiens, UniProt P01116+P62937, Q61H); assay: as above; type: biochemical; conditions: KRAS Q61H; read-out: KRAS Q61H FRET data IC50
Chain of KRAS Q61H (P01116 1-169 isoform P01116-2 Q61H limits assumed): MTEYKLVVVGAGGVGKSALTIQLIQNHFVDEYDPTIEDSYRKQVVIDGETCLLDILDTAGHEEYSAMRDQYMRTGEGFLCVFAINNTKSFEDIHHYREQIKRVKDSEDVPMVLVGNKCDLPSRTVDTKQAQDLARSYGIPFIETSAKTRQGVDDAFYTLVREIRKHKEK
Chain of KRAS Q61H (P62937 whole entry): as the sequence (P62937 whole entry) above
How it was run: as §3

[14] = biological target: NRAS WT (Homo sapiens, UniProt P01111+P62937); assay: as above; type: biochemical; conditions: NRAS WT; read-out: NRAS WT FRET data IC50
Chain of NRAS WT (P01111 whole entry): as the sequence (P01111 whole entry G12C) above, with C12G counted along it
Chain of NRAS WT (P62937 whole entry): as the sequence (P62937 whole entry) above
How it was run: as §3

[15] = read-out: KRAS G12S FRET data, IC50
[16] = read-out: KRAS G12C FRET data, IC50
[17] = NRAS G12C, read-out: NRAS G12C FRET data IC50
[18] = KRAS G13D, read-out: KRAS G13D FRET data IC50
[19] = read-out: KRAS G12D FRET data, IC50
[20] = KRAS WT, read-out: KRAS WT FRET data IC50
[21] = read-out: KRAS G13C FRET data, IC50
[22] = KRAS G12V, read-out: KRAS G12V FRET data IC50

IC50 [1] [µM]	IC50 [3, 15] [µM]	IC50 [4, 16] [µM]	IC50 [5, 17] [µM]	IC50 [6, 18] [µM]	IC50 [7, 19] [µM]	IC50 [8, 20] [µM]	IC50 [9, 21] [µM]	IC50 [10, 22] [µM]	IC50 [11] [µM]	IC50 [12] [µM]	IC50 [13] [µM]	IC50 [14] [µM]	SMILES	IC50 [2] [µM]	further results
< 0.01	< 0.01	< 0.01	< 0.01	0.01 to 0.1	0.01 to 0.1	< 0.01	< 0.01	0.01 to 0.1	0.01 to 0.1	< 0.01	< 0.01	< 0.01	CCn1c(-c2cc(N3CCN(C)CC3)cnc2[C@H](C)OC)c2c3cc(ccc31)-c1cc(O)cc(c1)C[C@H](NC(=O)[C@H](C(C)C)N(C)C(=O)[C@@H]1OCC[C@@H]1c1ccccc1)C(=O)N1CCC[C@H](N1)C(=O)OCC(C)(C)C2 (atropisomer, axis not shown) [Example A594]	< 0.01	
0.01 to 0.1	1 to 10	0.1 to 1	0.1 to 1	1 to 10	1 to 10	0.1 to 1	0.1 to 1	0.1 to 1	0.1 to 1	0.1 to 1	0.1 to 1	0.1 to 1	CCn1c(-c2cccnc2[C@H](C)OC)c2c3cc(ccc31)-c1csc(n1)C[C@H](NC(=O)[C@H](C(C)C)N(C)C(=O)N1CCN3CCOC[C@H]3C1)C(=O)N1CCC[C@H](N1)C(=O)OCC(C)(C)C2 [Example A548]	0.01 to 0.1	
									0.1 to 1	0.1 to 1	0.1 to 1	0.1 to 1	CCn1c(-c2cccnc2[C@H](C)OC)c2c3cc(ccc31)-c1csc(n1)C[C@H](NC(=O)[C@H](C(C)C)N(C)C(=O)N1CC(N)(C#N)C1)C(=O)N1CCC[C@H](N1)C(=O)OCC(C)(C)C2 [Example A456]	1 to 10	IC50 ([3]; KRAS G12S FRET data, IC50): 0.1 to 1 µM; IC50 ([4]; KRAS G12C FRET data, IC50): 0.1 to 1 µM; IC50 ([5]; NRAS G12C FRET data IC50, NRAS G12C): 0.1 to 1 µM; IC50 ([6]; KRAS G13D FRET data IC50, KRAS G13D): 1 to 10 µM; IC50 ([7]; KRAS G12D FRET data, IC50): 1 to 10 µM; IC50 ([8]; KRAS WT FRET data IC50, KRAS WT): 0.1 to 1 µM; IC50 ([9]; KRAS G13C FRET data, IC50): 0.1 to 1 µM; IC50 ([10]; KRAS G12V FRET data IC50, KRAS G12V): 0.1 to 1 µM
	0.1 to 1	0.1 to 1	0.1 to 1	1 to 10	1 to 10	0.1 to 1	0.1 to 1	0.1 to 1	0.1 to 1	1 to 10	0.1 to 1	0.1 to 1	CCn1c(-c2cccnc2[C@H](C)OC)c2c3cc(ccc31)-c1csc(n1)C[C@H](NC(=O)[C@@H]1CCCO1)C(=O)N1CCC[C@H](N1)C(=O)OCC(C)(C)C2 [Example A331]	1 to 10	

SMILES	IC50 [1] [µM]	IC50 [3, 15] [µM]	IC50 [4, 16] [µM]	IC50 [5, 17] [µM]	IC50 [6, 18] [µM]	IC50 [7, 19] [µM]	IC50 [8, 20] [µM]	IC50 [9, 21] [µM]	IC50 [10, 22] [µM]	IC50 [11] [µM]	IC50 [12] [µM]	IC50 [13] [µM]	IC50 [14] [µM]	IC50 [2] [µM]	further results
CCn1c(-c2cccnc2[C@H](C)OC)c2c3cc(ccc31)-c1csc(n1)C[C@H](NC(=O)[C@H](C(C)C)N(C)C(=O)N1C[C@@H]3CN(C)C[C@@H]31)C(=O)N1CCC[C@H](N1)C(=O)OCC(C)(C)C2 (atropisomer, axis not shown) [Example A446]		1 to 10	1 to 10	1 to 10	1 to 10	> 10	1 to 10	1 to 10	> 10	1 to 10	> 10	1 to 10	1 to 10	> 10	
